Experimental data published in US11130960B2, “Methods for conferring or enhancing herbicide resistance on plants and/or alga with protoporphyrinogen oxidase variants” (FARM HANNONG CO., LTD., priority 2014, dated 2021).

Experiments:
[1] = system: mutant AtPPO1 transformant; experiment: Seed germination on ½ MS medium containing herbicide; type: in vivo, Arabidopsis thaliana; conditions: ½ MS medium containing 70 nM tiafenacil
[2] = system: Halothece sp. PCC 7418 strain; experiment: Herbicide resistance test of Halothece sp. PCC 7418 strain in CRBIP medium; type: cell-based; conditions: 8 days after treatment, CRBIP Medium 1538
Procedure: Halothece sp. PCC 7418 strain was cultured in CRBIP Medium 1538 (Institut Pasteur, France). CRBIP Medium 1538 is a mixed medium of ASNIII and Turks Island Salts 4× at a ratio of 1:1(v/v), and ASNIII medium was composed of 25.0 g of NaCl, 3.5 g of MgSO4.7H2O, 2.0 g of MgCl2.6H2O, 0.5 g of KCl, 0.5 g of CaCl2.2H2O, 0.75 g of NaNO3, 0.02 g of K2HPO4.3H2O, 0.04 g of NaCO3, 2.5 ml of ammonium iron(III) citrate/citric acid monohydrate solution [a mixture of 300 mg of ammonium iron(III) citrate, 300 mg of citric acid monohydrate, and 250 ml of distilled water], 2.5 ml of magnesium titriplex dihydrate solution [a mixture of 0.1 g of Mg EDTA and 500 ml of distilled water], 1 ml of trace metal A5+Co [a mixture of 2.86 g of H3BO3, 1.81 g of MnCl2.4H2O, 0.222 g of ZnSO4.7H2O, 0.39 g of NaMoO4.2H2O, 0.079 g of CuSO4.5H2O, 0.049 g of Co(NO3)2.6H2O and 1000 ml of distilled water], and 1000 ml of distilled water. Turks Island Salts 4× was composed of 112 g of NaCl, 2.68 g of KCl, 22 g of MgCl2.6 H2O, 27.7 g of MgSO4.7 H2O, 5.8 g of CaCl2.2 H2O, and 1000 ml of distilled water. ASNIII medium and Tursk Island Salts 4× were autoclaved at 120° C. for 20 minutes, respectively and then mixed at a ratio of 1:1(v/v).
5 ml of the above culture medium was added to a test tube, and 2 or 10 μM of Tiafenacil was added thereto or not. The seed-cultured Halothece sp. […]

COC(=O)CCNC(=O)C(C)Sc1cc(-n2c(=O)cc(C(F)(F)F)n(C)c2=O)c(F)cc1Cl (centres unmarked) [Tiafenacil]
seed germination [1]: showed germination | concentration at which growth of the strain was maintained [2]: 10 µM
